In brackets after ≈: the same amount, converted by molar mass.
Assays:
[1] = tested on: MCF7; test: Cytotoxicity against Homo sapiens (human) MCF-7 cells assessed as survival after 48 hr by MTT assay; format: functional, cell-based; conditions: MCF7, 48 h
[2] = tested on: HepG2; test: Cytotoxicity against Homo sapiens (human) HepG2 cells assessed as survival after 48 hr by MTT assay; format: functional, cell-based; conditions: HepG2, 48 h

SMILES | IC50 [1] | IC50 [2]
c1ccc2[nH]c3nc4ccccc4c-3cc2c1 | > 1000 µg/mL | > 1000 µg/mL
c1ccc2c(c1)ccc1cc3c(nc12)[nH]c1ccccc13 | 71.4 µg/mL (≈ 266 µM) | 98.1 µg/mL (≈ 366 µM)
Cc1cccc2cc3c(nc12)[nH]c1ccccc13 | 5.5 µg/mL (≈ 23.7 µM) | 5.4 µg/mL (≈ 23.2 µM)
Brc1ccc2cc3c(nc2c1)[nH]c1ccccc13 | 42.8 µg/mL (≈ 144 µM) | 34 µg/mL (≈ 114 µM)

Source: ChEMBL document CHEMBL3045362, “Iodine catalyzed one-pot synthesis of chloro-substituted linear and angular indoloquinolines and in vitro antiproliferative activity study of different indoloquinolines” (Med Chem Res, 2013)
